Key:
hNav1.4 [1] = molecular target: T1, hNav1.4 (Homo sapiens, UniProt P35499, F1586C); assay: whole-cell patch clamp, peak INa; assay type: cell-based; settings: read-out: 0.1 Hz / IC50
T1 construct: gene SCN4A
Excerpt: (§1) whole-cell patch clamp, peak INa on hNav1.4

hNav1.4 [2] = molecular target: T2, hNav1.4 (Homo sapiens, UniProt P35499); assay: whole-cell patch clamp, peak INa; assay type: cell-based; settings: read-out: 0.1 Hz / IC50
T2 construct: gene SCN4A
Excerpt: as §1

T1 sequence (P35499 whole entry F1586C): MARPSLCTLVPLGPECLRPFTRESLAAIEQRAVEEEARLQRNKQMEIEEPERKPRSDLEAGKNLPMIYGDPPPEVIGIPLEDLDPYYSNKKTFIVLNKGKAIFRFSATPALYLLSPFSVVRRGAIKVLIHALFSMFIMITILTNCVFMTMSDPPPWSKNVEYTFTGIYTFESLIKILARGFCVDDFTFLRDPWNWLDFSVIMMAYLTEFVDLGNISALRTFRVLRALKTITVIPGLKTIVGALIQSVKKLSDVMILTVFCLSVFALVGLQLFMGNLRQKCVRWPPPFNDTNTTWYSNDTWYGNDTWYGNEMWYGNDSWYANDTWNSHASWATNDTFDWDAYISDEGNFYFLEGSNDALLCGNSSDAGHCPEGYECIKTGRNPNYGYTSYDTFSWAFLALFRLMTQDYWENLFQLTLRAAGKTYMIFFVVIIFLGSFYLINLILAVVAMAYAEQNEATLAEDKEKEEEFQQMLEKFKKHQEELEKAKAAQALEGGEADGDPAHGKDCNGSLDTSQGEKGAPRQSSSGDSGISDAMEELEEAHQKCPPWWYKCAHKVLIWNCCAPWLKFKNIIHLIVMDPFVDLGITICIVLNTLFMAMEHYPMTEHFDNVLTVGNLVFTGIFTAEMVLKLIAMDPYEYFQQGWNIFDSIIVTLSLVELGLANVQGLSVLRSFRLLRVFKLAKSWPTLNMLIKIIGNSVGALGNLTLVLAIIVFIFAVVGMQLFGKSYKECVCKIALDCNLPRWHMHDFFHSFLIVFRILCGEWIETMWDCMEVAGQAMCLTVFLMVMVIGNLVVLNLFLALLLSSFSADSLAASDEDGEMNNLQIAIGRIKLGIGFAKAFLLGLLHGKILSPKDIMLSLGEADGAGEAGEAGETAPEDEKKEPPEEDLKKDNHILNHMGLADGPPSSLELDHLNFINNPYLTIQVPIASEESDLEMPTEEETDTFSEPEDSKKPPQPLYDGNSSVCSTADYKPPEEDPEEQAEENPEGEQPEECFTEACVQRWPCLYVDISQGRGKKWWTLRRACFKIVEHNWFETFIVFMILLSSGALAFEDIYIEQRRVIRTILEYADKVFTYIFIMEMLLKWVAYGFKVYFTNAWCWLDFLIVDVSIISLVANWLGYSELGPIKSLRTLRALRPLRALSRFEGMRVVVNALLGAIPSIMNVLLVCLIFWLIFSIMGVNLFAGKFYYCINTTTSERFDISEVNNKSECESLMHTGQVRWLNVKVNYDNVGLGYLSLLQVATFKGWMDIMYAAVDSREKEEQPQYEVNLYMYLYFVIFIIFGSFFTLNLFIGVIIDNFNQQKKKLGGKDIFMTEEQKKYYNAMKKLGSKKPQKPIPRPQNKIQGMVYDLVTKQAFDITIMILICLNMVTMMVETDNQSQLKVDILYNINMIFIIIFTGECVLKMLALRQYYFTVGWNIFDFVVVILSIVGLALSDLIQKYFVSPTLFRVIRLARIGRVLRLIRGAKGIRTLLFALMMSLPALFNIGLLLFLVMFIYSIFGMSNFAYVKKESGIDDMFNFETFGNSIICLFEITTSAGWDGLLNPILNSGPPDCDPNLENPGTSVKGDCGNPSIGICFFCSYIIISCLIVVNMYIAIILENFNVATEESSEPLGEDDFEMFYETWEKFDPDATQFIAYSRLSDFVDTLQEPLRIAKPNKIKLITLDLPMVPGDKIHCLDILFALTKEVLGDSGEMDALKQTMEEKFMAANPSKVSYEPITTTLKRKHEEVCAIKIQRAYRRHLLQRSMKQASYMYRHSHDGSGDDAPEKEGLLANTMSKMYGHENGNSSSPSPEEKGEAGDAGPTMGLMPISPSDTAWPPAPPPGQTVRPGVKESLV
T2 sequence (P35499 whole entry): as the sequence (P35499 whole entry F1586C) above, with C1586F counted along it

IC50 (hNav1.4 [1]): 215 ± 5 µM
IC50 (hNav1.4 [2]): 51 ± 2 µM
Structure (SMILES): CNC[C@H](C)Oc1cccc2ccccc12 [(S)-22b]

Source: publication PMC4513211, “Inhibition of voltage-gated sodium channels by sumatriptan bioisosteres” (Frontiers in Pharmacology, 2015)
